Experimental findings from BindingDB's records for doi:10.1016/0960-894X(94)00458-R (Tumor Biology Center, 1995) are described below.

pIC50: −log10 of the molar value. Some results are limits rather than exact numbers.

The target of assay [1] is cAMP-dependent protein kinase catalytic subunit alpha (Bos taurus, UniProt P00517). Briefly: PKA assay. As for the experimental part:
The activity of PKA, activated by cAMP, is measured by its ability to transfer phosphate from [gamma-32P]ATP to histone.

Assay [2] is described as follows: The activity of cGPK, activated by cGMP, is measured by its ability to transfer phosphate from [gamma-32P]ATP to histone.
The target of assay [3] is Myosin light chain kinase, smooth muscle (Gallus gallus, UniProt P11799). In words: MLCK assay. Conditions: pH 7.2; 30 °C. As for the experimental part: The activity of MLCK is measured by its ability to transfer 32P from [gamma-32P]ATP to myosin light-chain.
Assay [4] addresses Tyrosine-protein phosphatase non-receptor type 2 (Mus musculus). Briefly: TPK assay. The method, then:
The activity of TPK is measured by its ability to transfer 32P from [gamma-32P]ATP to Poly(Glu,Tyr; 4:l).

The target in assay [5] is T1, cGMP-dependent protein kinase 1 (Bos taurus, UniProt P00516).
T1 sequence (P00516 whole entry): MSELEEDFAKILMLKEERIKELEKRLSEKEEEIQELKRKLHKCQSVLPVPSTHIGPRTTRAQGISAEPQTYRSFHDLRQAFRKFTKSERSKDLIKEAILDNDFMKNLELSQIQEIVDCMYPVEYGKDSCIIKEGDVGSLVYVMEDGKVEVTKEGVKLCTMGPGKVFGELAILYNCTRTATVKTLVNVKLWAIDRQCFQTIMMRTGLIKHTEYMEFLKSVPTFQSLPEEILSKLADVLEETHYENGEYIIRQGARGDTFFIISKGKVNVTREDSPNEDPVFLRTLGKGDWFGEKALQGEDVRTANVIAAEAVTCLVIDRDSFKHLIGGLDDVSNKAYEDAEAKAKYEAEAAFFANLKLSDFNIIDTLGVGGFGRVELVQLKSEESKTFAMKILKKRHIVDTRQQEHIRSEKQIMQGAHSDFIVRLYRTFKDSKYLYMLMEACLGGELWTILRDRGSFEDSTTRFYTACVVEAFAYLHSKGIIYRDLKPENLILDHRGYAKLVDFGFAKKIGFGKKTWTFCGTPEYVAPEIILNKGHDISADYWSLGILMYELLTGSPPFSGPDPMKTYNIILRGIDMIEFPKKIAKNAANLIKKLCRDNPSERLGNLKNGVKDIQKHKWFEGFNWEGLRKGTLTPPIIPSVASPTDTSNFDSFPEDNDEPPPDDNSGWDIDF
Briefly: cGPK assay. As for the experimental part: The activity of cGPK, activated by cGMP, is measured by its ability to transfer phosphate from [gamma-32P]ATP to histone.

The target of assay [6] is Protein kinase C beta type (Rattus norvegicus, UniProt P68403). Briefly: MLCK assay.
Sequence of Protein kinase C beta type (P68403 whole entry): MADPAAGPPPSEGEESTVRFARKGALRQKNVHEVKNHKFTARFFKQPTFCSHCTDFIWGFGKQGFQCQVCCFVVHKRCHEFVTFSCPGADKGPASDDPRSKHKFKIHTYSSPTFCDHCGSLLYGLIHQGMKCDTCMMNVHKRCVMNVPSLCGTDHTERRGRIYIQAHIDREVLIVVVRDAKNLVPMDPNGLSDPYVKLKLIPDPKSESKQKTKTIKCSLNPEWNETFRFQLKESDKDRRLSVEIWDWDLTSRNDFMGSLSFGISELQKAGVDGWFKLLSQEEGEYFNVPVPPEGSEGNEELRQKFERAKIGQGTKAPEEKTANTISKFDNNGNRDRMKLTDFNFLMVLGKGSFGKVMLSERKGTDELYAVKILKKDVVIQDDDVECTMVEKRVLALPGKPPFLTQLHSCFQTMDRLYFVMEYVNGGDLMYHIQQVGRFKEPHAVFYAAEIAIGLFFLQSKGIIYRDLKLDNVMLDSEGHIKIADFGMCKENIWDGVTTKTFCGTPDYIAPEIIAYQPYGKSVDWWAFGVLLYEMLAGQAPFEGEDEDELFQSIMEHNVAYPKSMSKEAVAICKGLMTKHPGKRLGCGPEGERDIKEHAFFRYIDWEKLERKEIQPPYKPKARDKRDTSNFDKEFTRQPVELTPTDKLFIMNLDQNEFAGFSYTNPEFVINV

Sequence of Myosin light chain kinase, smooth muscle (P11799 whole entry): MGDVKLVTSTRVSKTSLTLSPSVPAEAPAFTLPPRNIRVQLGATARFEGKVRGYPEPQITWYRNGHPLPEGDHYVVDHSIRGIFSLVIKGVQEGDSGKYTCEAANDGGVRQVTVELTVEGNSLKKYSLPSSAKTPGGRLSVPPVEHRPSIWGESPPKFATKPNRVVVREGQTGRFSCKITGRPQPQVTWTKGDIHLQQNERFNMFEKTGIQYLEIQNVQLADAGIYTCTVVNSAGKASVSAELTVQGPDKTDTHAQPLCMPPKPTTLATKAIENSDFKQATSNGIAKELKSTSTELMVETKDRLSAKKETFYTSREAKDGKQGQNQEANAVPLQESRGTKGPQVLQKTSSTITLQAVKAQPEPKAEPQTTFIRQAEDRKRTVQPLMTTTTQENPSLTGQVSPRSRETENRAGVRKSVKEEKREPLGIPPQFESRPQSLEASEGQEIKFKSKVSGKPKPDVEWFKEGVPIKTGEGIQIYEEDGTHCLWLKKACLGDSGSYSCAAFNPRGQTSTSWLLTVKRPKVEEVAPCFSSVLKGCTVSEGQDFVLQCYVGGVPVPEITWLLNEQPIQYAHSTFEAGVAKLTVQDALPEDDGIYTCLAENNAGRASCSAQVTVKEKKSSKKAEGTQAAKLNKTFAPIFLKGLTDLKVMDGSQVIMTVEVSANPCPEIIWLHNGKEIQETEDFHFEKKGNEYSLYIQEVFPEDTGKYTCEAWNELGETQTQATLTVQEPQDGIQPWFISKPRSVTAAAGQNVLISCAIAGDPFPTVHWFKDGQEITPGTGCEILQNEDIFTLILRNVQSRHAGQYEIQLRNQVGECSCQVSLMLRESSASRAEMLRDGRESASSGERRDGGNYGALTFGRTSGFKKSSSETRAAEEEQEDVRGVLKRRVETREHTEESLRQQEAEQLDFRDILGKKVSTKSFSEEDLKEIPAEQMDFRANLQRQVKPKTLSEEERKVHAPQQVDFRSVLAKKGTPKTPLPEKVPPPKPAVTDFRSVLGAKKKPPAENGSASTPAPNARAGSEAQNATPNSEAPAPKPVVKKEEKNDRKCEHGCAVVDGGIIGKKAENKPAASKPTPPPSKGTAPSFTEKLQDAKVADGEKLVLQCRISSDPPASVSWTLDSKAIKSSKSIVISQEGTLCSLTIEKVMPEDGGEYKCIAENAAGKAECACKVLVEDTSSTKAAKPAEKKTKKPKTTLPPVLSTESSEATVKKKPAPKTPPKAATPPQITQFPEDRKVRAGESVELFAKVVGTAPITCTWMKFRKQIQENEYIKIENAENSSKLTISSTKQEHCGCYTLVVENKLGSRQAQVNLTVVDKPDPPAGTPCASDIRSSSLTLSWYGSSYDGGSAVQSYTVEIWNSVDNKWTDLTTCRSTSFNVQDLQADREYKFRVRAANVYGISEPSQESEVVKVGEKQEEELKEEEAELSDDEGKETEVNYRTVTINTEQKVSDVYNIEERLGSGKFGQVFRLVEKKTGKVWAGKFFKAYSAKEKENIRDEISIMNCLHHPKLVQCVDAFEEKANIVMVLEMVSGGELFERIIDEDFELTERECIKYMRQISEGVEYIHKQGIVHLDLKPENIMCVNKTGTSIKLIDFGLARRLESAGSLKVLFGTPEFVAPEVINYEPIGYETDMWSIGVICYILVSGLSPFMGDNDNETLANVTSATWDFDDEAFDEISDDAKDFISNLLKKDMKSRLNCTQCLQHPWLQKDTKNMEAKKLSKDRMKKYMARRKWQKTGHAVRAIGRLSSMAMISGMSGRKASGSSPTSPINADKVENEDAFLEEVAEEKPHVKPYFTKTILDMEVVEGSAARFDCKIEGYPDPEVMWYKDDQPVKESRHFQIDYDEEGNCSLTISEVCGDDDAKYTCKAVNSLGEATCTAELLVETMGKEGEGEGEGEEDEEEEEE

`Cn1c2ccccc2c2c3c(c4c5ccccc5n(CCC#N)c4c21)C(=O)NC3=O` [3-{23-methyl-12,14-dioxo-3,13,23-triazahexacyclo[14.7.0.0^{2,10}.0^{4,9}.0^{11,15}.0^{17,22}]tricosa-1(16),2(10),4(9),5,7,11(15),17,19,21-nonaen-3-yl}propanenitrile]: the pIC50 in assay [1] was below 4.52; in assay [2] it was 7.26.

As to `COc1ccc2[nH]c3c(c4c(c5c6cc(OC)ccc6n(CCCN(C)C)c35)CNC4=O)c2c1` [23-[3-(dimethylamino)propyl]-7,19-dimethoxy-3,13,23-triazahexacyclo[14.7.0.0^{2,10}.0^{4,9}.0^{11,15}.0^{17,22}]tricosa-1(16),2(10),4,6,8,11(15),17(22),18,20-nonaen-12-one], the negative logarithm of the IC50 (pIC50) in assay [3] and in assay [2] was 6.66 in each case.

Take `CN(C)CC(O)Cn1c2ccccc2c2c3c(c4c5ccccc5n(C)c4c21)C(=O)NC3=O` (stereo unspecified) [23-[3-(dimethylamino)-2-hydroxypropyl]-3-methyl-3,13,23-triazahexacyclo[14.7.0.0^{2,10}.0^{4,9}.0^{11,15}.0^{17,22}]tricosa-1(16),2(10),4,6,8,11(15),17(22),18,20-nonaene-12,14-dione]: the pIC50 in assay [3] and in assay [2] was 6.92 each time.

Consider `CN(C)CCCn1c2ccccc2c2c3c(c4c5ccccc5[nH]c4c21)C(=O)NC3` [23-[3-(dimethylamino)propyl]-3,13,23-triazahexacyclo[14.7.0.0^{2,10}.0^{4,9}.0^{11,15}.0^{17,22}]tricosa-1(16),2(10),4,6,8,11(15),17(22),18,20-nonaen-12-one], for which the values for the pIC50 in assay [1], in assay [3] and in assay [2] were below 5.00, 6.41 and 6.41, respectively.

As to `COc1ccc2c(c1)c1c3c(c4c5cc(OC)ccc5n(CCC#N)c4c1n2C)CNC3=O` [3-{7,19-dimethoxy-23-methyl-14-oxo-3,13,23-triazahexacyclo[14.7.0.0^{2,10}.0^{4,9}.0^{11,15}.0^{17,22}]tricosa-1(16),2(10),4(9),5,7,11(15),17,19,21-nonaen-3-yl}propanenitrile], the pIC50 in assay [3] is 5.80; in assay [2], 5.80; in assay [4], below 5.00.

As to `COc1ccc2c(c1)c1c3c(c4c5ccccc5n(CC(O)CN(C)C)c4c1n2C)C(=O)NC3=O` (stereo unspecified) [23-[3-(dimethylamino)-2-hydroxypropyl]-7-methoxy-3-methyl-3,13,23-triazahexacyclo[14.7.0.0^{2,10}.0^{4,9}.0^{11,15}.0^{17,22}]tricosa-1(16),2(10),4,6,8,11(15),17(22),18,20-nonaene-12,14-dione], the pIC50 in assay [1] was 6.29; in assay [5] it was 5.32; in assay [3], 6.92; in assay [6], 8.40.

For `Cn1c2ccccc2c2c3c(c4c5ccccc5n(CCCN)c4c21)CNC3=O` [23-(3-aminopropyl)-3-methyl-3,13,23-triazahexacyclo[14.7.0.0^{2,10}.0^{4,9}.0^{11,15}.0^{17,22}]tricosa-1(16),2(10),4,6,8,11(15),17(22),18,20-nonaen-12-one], the negative-log IC50 (pIC50) in assay [3] and in assay [2] was 7.74 in each case.

For the molecule `Cn1c2ccccc2c2c3c(c4c5ccccc5n(CCC#N)c4c21)CNC3=O` [Indolocarbazole deriv.], the pIC50 in assay [2] is 5.24; in assay [4], below 5.00.

As to `COc1ccc2c(c1)c1c3c(c4c5ccccc5n(C)c4c1n2CCCC#N)C(=O)NC3=O` [3-(9-methoxy-13-methyl-5,7-dioxo-6,7,12,13-tetrahydro-5H-indolo[2,3-a]pyrrolo[3,4-c]carbazol-12-yl)propyl cyanide], in assay [2], the negative-log IC50 (pIC50) is 7.49.

On to `COc1ccc2c(c1)c1c3c(c4c5ccccc5n(CCC#N)c4c1n2C)C(=O)NC3=O` [3-{19-methoxy-23-methyl-12,14-dioxo-3,13,23-triazahexacyclo[14.7.0.0^{2,10}.0^{4,9}.0^{11,15}.0^{17,22}]tricosa-1(16),2(10),4(9),5,7,11(15),17,19,21-nonaen-3-yl}propanenitrile], for which the negative-log IC50 (pIC50) in assay [1] was 6.40; in assay [5], below 5.52; in assay [3] it was 6.70; in assay [2] it was 7.31; in assay [6], 8.70; in assay [4], below 5.00.

Take `COc1ccc2c(c1)c1c3c(c4c5cc(OC)ccc5n(CCC#N)c4c1n2C)C(=O)NC3=O` [3-{7,19-dimethoxy-23-methyl-12,14-dioxo-3,13,23-triazahexacyclo[14.7.0.0^{2,10}.0^{4,9}.0^{11,15}.0^{17,22}]tricosa-1(16),2(10),4(9),5,7,11(15),17,19,21-nonaen-3-yl}propanenitrile]: in assay [2], the negative logarithm of the IC50 (pIC50) is 6.74.

Regarding `CN(C)CCCn1c2ccc(O)cc2c2c3c(c4c5cc(O)ccc5[nH]c4c21)C(=O)NC3` [23-[3-(dimethylamino)propyl]-7,19-dihydroxy-3,13,23-triazahexacyclo[14.7.0.0^{2,10}.0^{4,9}.0^{11,15}.0^{17,22}]tricosa-1(16),2(10),4,6,8,11(15),17(22),18,20-nonaen-12-one], the pIC50 in assay [3] is 7.51; in assay [2], 6.51.

For the molecule `CN(C)CCCn1c2ccccc2c2c3c(c4c5ccccc5n(C)c4c21)C(=O)NC3` [23-[3-(dimethylamino)propyl]-3-methyl-3,13,23-triazahexacyclo[14.7.0.0^{2,10}.0^{4,9}.0^{11,15}.0^{17,22}]tricosa-1(16),2(10),4,6,8,11(15),17(22),18,20-nonaen-12-one], the negative-log IC50 (pIC50) in assay [3] and in assay [2] was 6.60 in each case.

Take `COc1ccc2c(c1)c1c3c(c4c5ccccc5n(CCCC#N)c4c1n2C)C(=O)NC3=O` [4-{19-methoxy-23-methyl-12,14-dioxo-3,13,23-triazahexacyclo[14.7.0.0^{2,10}.0^{4,9}.0^{11,15}.0^{17,22}]tricosa-1(16),2(10),4(9),5,7,11(15),17,19,21-nonaen-3-yl}butanenitrile]: the pIC50 in assay [1] was 6.70; in assay [5], 6.00; in assay [3] it was 7.49; in assay [6] it was 8.30.

Turning to `COc1ccc2c(c1)c1c3c(c4c5ccccc5n(CC(O)CN(C)C)c4c1n2C)CNC3=O` (stereo unspecified) [23-[3-(dimethylamino)-2-hydroxypropyl]-7-methoxy-3-methyl-3,13,23-triazahexacyclo[14.7.0.0^{2,10}.0^{4,9}.0^{11,15}.0^{17,22}]tricosa-1(16),2(10),4,6,8,11(15),17(22),18,20-nonaen-12-one], the negative-log IC50 (pIC50) was 4.82 in assay [1]; 4.64 in assay [5]; 5.04 in assay [3]; 7.07 in assay [6]; below 5.00 in assay [4].

Molecule `COc1ccc2c(c1)c1c3c(c4c5ccccc5n(C)c4c1n2CC(O)CN(C)C)C(=O)NC3=O` (stereo unspecified) [13-(3-dimethylamino-2-hydroxypropyl)-3-methoxy-12-methyl-6,7,12,13-tetrahydro-5H-indolo[2,3-a]pyrrolo[3,4-c]carbazole-5,7-dione] showed a pIC50 in assay [2] of 6.92.

For `COc1ccc2c(c1)c1c3c(c4c5ccccc5n(C)c4c1n2CC(O)CN(C)C)C(=O)NC3` (stereo unspecified) [12-(3-dimethylamino-2-hydroxypropyl)-9-methoxy-13-methyl-6,7,12,13-tetrahydro-5H-indolo[2,3-a]pyrrolo[3,4-c]carbazol-5-one], the pIC50 in assay [2] was 5.04.

With `Cn1c2ccc(O)cc2c2c3c(c4c5cc(O)ccc5n(CCC#N)c4c21)CNC3=O` [3-{7,19-dihydroxy-23-methyl-14-oxo-3,13,23-triazahexacyclo[14.7.0.0^{2,10}.0^{4,9}.0^{11,15}.0^{17,22}]tricosa-1(16),2(10),4(9),5,7,11(15),17,19,21-nonaen-3-yl}propanenitrile], the negative-log IC50 (pIC50) in assay [3] and in assay [2] was 7.52 each time.

Consider `CN(C)CC(O)Cn1c2ccccc2c2c3c(c4c5ccccc5n(C)c4c21)C(=O)NC3` (stereo unspecified) [Indolocarbazole deriv.], for which the pIC50 in assay [3] was 5.26; in assay [2], 5.26; in assay [4], below 4.00.

Regarding `COc1ccc2c(c1)c1c3c(c4c5ccccc5n(C)c4c1n2CCC#N)C(=O)NC3=O` [3-{7-methoxy-23-methyl-12,14-dioxo-3,13,23-triazahexacyclo[14.7.0.0^{2,10}.0^{4,9}.0^{11,15}.0^{17,22}]tricosa-1(16),2(10),4(9),5,7,11(15),17,19,21-nonaen-3-yl}propanenitrile], the pIC50 in assay [3] is 7.31; in assay [2], 6.70; in assay [6], 7.80.
